{
  "source": "ChEMBL document CHEMBL1201862",
  "about": "“PubChem BioAssay data set” (2004)",
  "key": {"[1]": {"assay": "NIH-3T3 fibroblast cytotoxicity, dose response, cytotoxicity control, cell-based, fluorescence, Alamar Blue, secondary assay (AID 2327);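 also: NIH-3T3 mouse fibroblasts cultured with fluconazole at 8 µg/mL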", "type": "functional"}, "[2]": {"target": "T1, RNA-binding protein pos-1 (Caenorhabditis elegans, UniProt G5EF15)", "T1 sequence (G5EF15 whole entry)": "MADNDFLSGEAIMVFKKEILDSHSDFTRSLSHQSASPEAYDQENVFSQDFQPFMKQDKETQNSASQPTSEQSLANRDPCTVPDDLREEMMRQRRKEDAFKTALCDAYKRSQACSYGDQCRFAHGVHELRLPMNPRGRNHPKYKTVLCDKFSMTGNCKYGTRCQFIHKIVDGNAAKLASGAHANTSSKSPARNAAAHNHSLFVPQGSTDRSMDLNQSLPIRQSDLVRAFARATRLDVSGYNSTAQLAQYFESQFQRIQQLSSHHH", "assay": "disruptors of C. elegans POS-1 RNA interaction – biochemical, fluorescence polarization, dose response (AID 1964);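 also: purified POS-1 fused to maltose binding protein made in E. coli; potency of compounds blocking POS-1 binding to fluorescent RNA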"}, "[3]": {"assay": "fluconazole-exposed Candida albicans growth modulators – fluorescence, retest, confirmation (AID 2467)", "type": "functional, cell-based"}, "[4]": {"assay": "Counterscreen for AddAB inhibitors: absorbance-based bacterial cell-based high throughput dose response assay for inhibitors of bacterial viability. [Related pubchem assays (depositor defined):AID435030, AID449728, AID449731, AID488942, AID488955, AID488956]", "type": "functional"}, "[5]": {"target": "Polyadenylate-binding protein 1 (Homo sapiens, UniProt P11940)", "sequence (P11940 whole entry, the tested form may be a part)": "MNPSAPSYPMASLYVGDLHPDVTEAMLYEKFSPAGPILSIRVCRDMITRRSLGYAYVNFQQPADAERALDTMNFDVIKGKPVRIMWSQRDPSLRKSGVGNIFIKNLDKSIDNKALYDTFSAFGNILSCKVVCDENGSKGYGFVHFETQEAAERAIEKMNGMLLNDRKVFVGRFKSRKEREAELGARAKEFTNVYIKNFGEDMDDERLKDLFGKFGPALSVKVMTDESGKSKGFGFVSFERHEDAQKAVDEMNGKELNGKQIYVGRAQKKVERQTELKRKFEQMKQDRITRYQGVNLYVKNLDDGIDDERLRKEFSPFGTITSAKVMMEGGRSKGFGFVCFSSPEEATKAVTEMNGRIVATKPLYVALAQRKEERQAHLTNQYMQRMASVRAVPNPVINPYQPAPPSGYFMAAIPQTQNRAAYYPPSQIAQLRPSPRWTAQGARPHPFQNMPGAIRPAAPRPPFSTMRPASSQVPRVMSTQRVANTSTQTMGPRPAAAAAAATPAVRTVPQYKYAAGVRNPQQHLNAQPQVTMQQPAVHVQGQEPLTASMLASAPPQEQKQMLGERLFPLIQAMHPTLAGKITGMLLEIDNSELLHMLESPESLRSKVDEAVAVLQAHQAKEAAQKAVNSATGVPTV", "assay": "MLLE domain peptide-binding blockers, IC50 – biochemical, fluorescence polarization, FITC-PAM2 peptide, dose response (AID 602259)", "type": "functional", "details": "read-out: IC50_Mean"}},
  "note": "Active and inactive are the calls of the source. Rule as the data show it, for most assays here: actives have a measured EC50 and inactives only a lower limit.",
  "data": [
    {"molecule": "CN1CCc2cc3c(c4c2[C@H]1[C@H](O)c1ccccc1-4)OCO3", "values": [
      {"measurement": "EC50", "setting": "[1]", "value": "75.6 µM (active)"},
      {"measurement": "EC50", "setting": "[2]", "value": "11.9 µM (active)"},
      {"measurement": "EC50", "setting": "[3]", "value": "2.74 µM (active)"},
      {"measurement": "IC50", "setting": "[4]", "value": "> 119 µM (inactive)"},
      {"measurement": "IC50", "setting": "[5]", "value": "25.8 µM (inactive)"}
    ]}
  ]
}
